Data: US12378211B2, “Carbonic anhydrase inhibitors and antibiotics against multidrug resistant bacteria” (Purdue Research Foundation, priority 2018, dated 2025)
≈ marks a conversion by molar mass, not a printed value. Read-outs that look alike come from different tables or passages of the source.

Assays:
[1] = test system: Mutant-12 of Enterococcus fecalis NR 31975; assay: microbe, parasite or virus in culture; format: cell-based; settings: Enterococcus
[2] = test system: Mutant-11 of Enterococcus fecalis NR 31975; assay: microbe, parasite or virus in culture; format: cell-based; settings: Enterococcus
[3] = test system: Mutant-6 of Enterococcus fecalis NR 31975; assay: microbe, parasite or virus in culture; format: cell-based; settings: Enterococcus
[4] = test system: Mutant-8 of Enterococcus fecalis NR 31975; assay: microbe, parasite or virus in culture; format: cell-based; settings: Enterococcus
[5] = test system: Mutant-15 of Enterococcus fecalis NR 31975; assay: microbe, parasite or virus in culture; format: cell-based; settings: Enterococcus
[6] = test system: Lactobacillus casei ATCC 334; assay: MIC against human normal gut microbiota; format: cell-based; settings: Lacticaseibacillus casei, ATCC334; MRS broth, 5% CO2, 48 hours; read-out: MIC
Procedure, shortened: (§1)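 Compounds were serially diluted against ~5×10^5 CFU/ml inocula for 48 h at 37° C. Bacteroides and Bifidobacterium were tested in BHIS broth anaerobically, Lactobacillus in MRS broth under 5% CO2.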

[7] = test system: Bifidobacterium longum subsp. Longum—44B HM 845; assay: MIC against human normal gut microbiota; format: cell-based; settings: Bifidobacterium longum; BHIS broth, anaerobic, 48 hours; read-out: MIC
Procedure, shortened: as §1

[8] = test system: Bifidobacterium breve—JCP7499 HIM 1120; assay: MIC against human normal gut microbiota; format: cell-based; settings: Bifidobacterium; BHIS broth, anaerobic, 48 hours; read-out: MIC
Procedure, shortened: as §1

[9] = test system: Bacteroides fragilis—CL07T00C01 HIM-709; assay: MIC against human normal gut microbiota; format: cell-based; settings: Bacteroides; BHIS broth, anaerobic, 48 hours; read-out: MIC
Procedure, shortened: as §1

[10] = test system: Mutant-13 of Enterococcus fecalis NR 31975; assay: microbe, parasite or virus in culture; format: cell-based; settings: Enterococcus
[11] = test system: MRSA NRS 384 (MRSA USA300); assay: MIC against Staphylococci, broth microdilution; format: cell-based, Staphylococcus aureus; settings: Staphylococcus aureus; TSB; read-out: MIC
Procedure, shortened: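 CLSI broth microdilution in tryptone soy broth, inoculum about 5×10^5 CFU/mL from overnight agar cultures at 0.5 McFarland, with serially diluted compound. Plates were incubated aerobically at 37° C for 18-20 h. MIC was the lowest concentration with no visible growth.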

[12] = test system: Mutant-5 of Enterococcus fecalis NR 31975; assay: microbe, parasite or virus in culture; format: cell-based; settings: Enterococcus
[13] = test system: Mutant-14 of Enterococcus fecalis NR 31975; assay: microbe, parasite or virus in culture; format: cell-based; settings: Enterococcus
[14] = test system: Mutant-4 of Enterococcus fecalis NR 31975; assay: microbe, parasite or virus in culture; format: cell-based; settings: Enterococcus
[15] = test system: Enterococcus faecium Patient #2-1-NR-31909; assay: MIC, broth microdilution in TSB; format: cell-based; settings: Enterococcus faecium, TSB
Procedure, shortened: (§2)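 Enterococci are cultured overnight on tryptone soya agar at 37° C under air. A 0.5 McFarland suspension is diluted in broth to about 5×10^5 CFU/mL and exposed to serially diluted compounds.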

[16] = test system: Enterococcus fecalis Strain SF 28073-NR31972; assay: MIC, broth microdilution in TSB; format: cell-based; settings: Enterococcus, TSB
Procedure, shortened: as §2

[17] = test system: Enterococcus fecalis Strain SF24413 NR31971; assay: MIC, broth microdilution in TSB; format: cell-based; settings: Enterococcus, TSB
Procedure, shortened: as §2

[18] = test system: Enterococcus faecium Patient #3-1 NR-31912; assay: MIC, broth microdilution in TSB; format: cell-based; settings: Enterococcus faecium, TSB
Procedure, shortened: as §2

[19] = test system: Enterococcus faecium E417-HM-965; assay: MIC, broth microdilution in TSB; format: cell-based; settings: Enterococcus faecium, E417HM965, TSB
Procedure, shortened: as §2

[20] = test system: Enterococcus faecalis—S613 HM-334; assay: MIC, broth microdilution in TSB; format: cell-based; settings: Enterococcus, TSB
Procedure, shortened: as §2

[21] = test system: Enterococcus fecalis Strain MMH594-NR31975; assay: MIC, broth microdilution in TSB; format: cell-based; settings: Enterococcus, TSB
Procedure, shortened: as §2

[22] = test system: Enterococcus fecalis Strain SF 24397 NR31970; assay: MIC, broth microdilution in TSB; format: cell-based; settings: Enterococcus, TSB
Procedure, shortened: as §2

[23] = test system: Mutant-7 of Enterococcus fecalis NR 31975; assay: microbe, parasite or virus in culture; format: cell-based; settings: Enterococcus
[24] = test system: Mutant-9 of Enterococcus fecalis NR 31975; assay: microbe, parasite or virus in culture; format: cell-based; settings: Enterococcus
[25] = test system: Mutant-2 of Enterococcus fecalis NR 31975; assay: microbe, parasite or virus in culture; format: cell-based; settings: Enterococcus

`CCc1ccc(C(=O)Nc2nnc(S(N)(=O)=O)s2)cc1` [CAI0017, 4-Ethyl-N-(5-sulfamoyl-1,3,4-thiadiazol-2-yl)benzamide] showed an MIC [1] of 16 µg/mL (≈ 51.2 µM), an MIC [2] of 8 µg/mL (≈ 25.6 µM) and an MIC [3] of 8 µg/mL (≈ 25.6 µM). The MIC [4] was 8 µg/mL (≈ 25.6 µM), the MIC [5] was 16 µg/mL (≈ 51.2 µM) and the MIC [6] was > 64 µg/mL. The MIC [7] was > 64 µg/mL, the MIC [8] was > 64 µg/mL and the MIC [9] was > 64 µg/mL. The MIC [10] was 16 µg/mL (≈ 51.2 µM), the MIC [11] was > 64 µg/mL and the MIC [12] was 8 µg/mL (≈ 25.6 µM). For the same compound, the MIC [13] was 8 µg/mL (≈ 25.6 µM), the MIC [14] was 16 µg/mL (≈ 51.2 µM) and the MIC ([15]; Table 1, read-out: MIC) was 0.25 µg/mL (≈ 0.8 µM). For the same compound, the MIC ([15]; Table 7, read-out: MIC in TSB) was 0.25 µg/mL (≈ 0.8 µM), the MIC ([16]; Table 1, read-out: MIC) was 1 µg/mL (≈ 3.2 µM) and the MIC ([16]; Table 7, read-out: MIC in TSB) was 1 µg/mL (≈ 3.2 µM). The MIC ([17]; Table 1, read-out: MIC) was 1 µg/mL (≈ 3.2 µM), the MIC ([17]; Table 7, read-out: MIC in TSB) was 1 µg/mL (≈ 3.2 µM) and the MIC ([18]; Table 1, read-out: MIC) was 1 µg/mL (≈ 3.2 µM). It also gave an MIC ([18]; Table 7, read-out: MIC in TSB) of 1 µg/mL (≈ 3.2 µM), an MIC ([19]; Table 1, read-out: MIC) of 0.25 µg/mL (≈ 0.8 µM) and an MIC ([19]; Table 7, read-out: MIC in TSB) of 0.25 µg/mL (≈ 0.8 µM). For the same compound, the MIC ([20]; Table 1, read-out: MIC) was 1 µg/mL (≈ 3.2 µM), the MIC ([20]; Table 7, read-out: MIC in TSB) was 1 µg/mL (≈ 3.2 µM) and the MIC ([21]; Table 1, read-out: MIC) was 1 µg/mL (≈ 3.2 µM). For the same compound, the MIC ([21]; Table 7, read-out: MIC in TSB) was 1 µg/mL (≈ 3.2 µM), the MIC ([22]; Table 1, read-out: MIC) was 1 µg/mL (≈ 3.2 µM) and the MIC ([22]; Table 7, read-out: MIC in TSB) was 1 µg/mL (≈ 3.2 µM). For the same compound, the MIC [23] was 8 µg/mL (≈ 25.6 µM), the MIC [24] was 16 µg/mL (≈ 51.2 µM) and the MIC [25] was 8 µg/mL (≈ 25.6 µM).
In the case of `CC(=O)NC[C@H]1CN(c2ccc(N3CCOCC3)c(F)c2)C(=O)O1` [Linezolid, reference compound], the MIC [1] is reported as 4 µg/mL (≈ 11.9 µM), the MIC [2] is reported as 4 µg/mL (≈ 11.9 µM) and the MIC [3] is reported as 4 µg/mL (≈ 11.9 µM). For the same compound, the MIC [4] was 8 µg/mL (≈ 23.7 µM), the MIC [5] was 8 µg/mL (≈ 23.7 µM) and the MIC [6] was 1 µg/mL (≈ 2.96 µM). For the same compound, the MIC [7] was ≤ 0.5 µg/mL, the MIC [8] was ≤ 0.5 µg/mL and the MIC [9] was 2 µg/mL (≈ 5.93 µM). For the same compound, the MIC [10] was 4 µg/mL (≈ 11.9 µM), the MIC [11] was 2 µg/mL (≈ 5.93 µM) and the MIC [12] was 4 µg/mL (≈ 11.9 µM). The MIC [13] was 4 µg/mL (≈ 11.9 µM), the MIC [14] was 4 µg/mL (≈ 11.9 µM) and the MIC ([16]; Table 1, read-out: MIC) was 1 µg/mL (≈ 2.96 µM). The MIC ([16]; Table 7, read-out: MIC in TSB) was 1 µg/mL (≈ 2.96 µM), the MIC ([17]; Table 1, read-out: MIC) was 1 µg/mL (≈ 2.96 µM) and the MIC ([17]; Table 7, read-out: MIC in TSB) was 1 µg/mL (≈ 2.96 µM). For the same compound, the MIC ([20]; Table 1, read-out: MIC) was 1 µg/mL (≈ 2.96 µM), the MIC ([20]; Table 7, read-out: MIC in TSB) was 1 µg/mL (≈ 2.96 µM) and the MIC ([21]; Table 1, read-out: MIC) was 1 µg/mL (≈ 2.96 µM). For the same compound, the MIC ([21]; Table 7, read-out: MIC in TSB) was 1 µg/mL (≈ 2.96 µM), the MIC ([22]; Table 1, read-out: MIC) was 1 µg/mL (≈ 2.96 µM) and the MIC ([22]; Table 7, read-out: MIC in TSB) was 1 µg/mL (≈ 2.96 µM). The MIC [23] was 2 µg/mL (≈ 5.93 µM), the MIC [24] was 4 µg/mL (≈ 11.9 µM) and the MIC [25] was 4 µg/mL (≈ 11.9 µM).
